Our source for the Dmax and DC50 values is patent US11427548B2 (Arvinas Operations, Inc., priority 2015, dated 2022).

Some results are limits rather than exact numbers.

The target of the assay is T1, Androgen Receptor (Homo sapiens, UniProt P10275).
T1 construct: endogenous in cells; host or cells: VCaP cells
T1 sequence (P10275 1-920): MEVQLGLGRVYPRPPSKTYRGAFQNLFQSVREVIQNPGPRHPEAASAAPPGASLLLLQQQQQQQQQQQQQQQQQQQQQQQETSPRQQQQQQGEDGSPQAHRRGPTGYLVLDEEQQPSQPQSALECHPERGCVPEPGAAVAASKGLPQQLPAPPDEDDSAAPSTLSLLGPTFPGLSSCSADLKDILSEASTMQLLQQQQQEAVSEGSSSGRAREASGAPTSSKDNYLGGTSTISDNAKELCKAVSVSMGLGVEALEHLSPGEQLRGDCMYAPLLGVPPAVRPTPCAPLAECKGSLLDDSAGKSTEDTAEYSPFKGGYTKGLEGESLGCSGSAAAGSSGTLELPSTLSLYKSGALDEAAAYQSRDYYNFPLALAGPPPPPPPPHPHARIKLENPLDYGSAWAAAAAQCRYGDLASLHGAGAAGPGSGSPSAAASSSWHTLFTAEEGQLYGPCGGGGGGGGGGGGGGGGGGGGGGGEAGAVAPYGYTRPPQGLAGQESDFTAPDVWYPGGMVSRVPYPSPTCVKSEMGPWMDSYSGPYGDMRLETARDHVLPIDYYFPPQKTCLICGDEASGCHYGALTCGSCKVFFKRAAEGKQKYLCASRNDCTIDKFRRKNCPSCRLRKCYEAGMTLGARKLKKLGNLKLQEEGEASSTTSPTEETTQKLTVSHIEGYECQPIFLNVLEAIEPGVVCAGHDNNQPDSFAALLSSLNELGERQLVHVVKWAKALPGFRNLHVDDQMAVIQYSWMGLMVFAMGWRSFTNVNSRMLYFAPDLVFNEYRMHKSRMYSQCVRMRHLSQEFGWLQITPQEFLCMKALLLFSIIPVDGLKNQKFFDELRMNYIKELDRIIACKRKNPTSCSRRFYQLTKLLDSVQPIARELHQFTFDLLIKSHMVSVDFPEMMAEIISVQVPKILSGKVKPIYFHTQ
Put plainly: Androgen Receptor ELISA assay (PathScan AR ELISA) in VCaP cells: AR degradation, Dmax and DC50. The assay is classed as cell-based. The settings on record: for Dmax: VCaP, read-out: VCaP Dmax (%); for DC50: read-out: VCaP DC50, concentration that caused 50% Androgen Receptor degradation, VCaP cells (Table 32). The method, boiled down: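 VCaP cells, 30,000/well, grown ≥3 days in phenol red-free RPMI with 5% charcoal-stripped FBS; compound added in 0.1% DMSO with 0.1 nM R1881, 7 half-log doses, 24 h. Lysate AR quantified by PathScan sandwich ELISA, HRP/TMB read at 450 nm, giving DC50 and Dmax.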
(In general: In an ELISA, binding on a coated surface is turned into a signal by an enzyme label.)

As a reminder, the Dmax is the greatest extent of degradation seen. By DC50 is commonly meant the concentration giving 50% degradation. As for `Cc1ncoc1-c1ccc(CNC(=O)[C@@H]2C[C@@H](O)CN2C(=O)[C@@H](NC(=O)COCCCCOc2ccc(-c3ccc(N4C(=S)N(c5ccc(C#N)c(Cl)c5)C(=O)C4(C)C)c(F)c3)cc2)C(C)(C)C)cc1` [Example 100, (2S,4R)-1-[(2S)-2-{2-[4-(4-{4-[3-(3-chloro-4-cyanophenyl)-5,5-dimethyl-4-oxo-2-sulfanylideneimidazolidin-1-yl]-3-fluorophenyl}phen-oxy)butoxy]acetamido}-3,3-dimethylbutanoyl]-4-hydroxy-N-{[4-(4-methyl-1,3-oxazol-5-yl)phenyl]methyl}pyrrolidine-2-carboxamide], the Dmax is above 71% and the DC50 is below 0.05 µM.

As to `Cc1ncoc1-c1ccc([C@H](C)NC(=O)[C@@H]2C[C@@H](O)CN2C(=O)[C@@H](NC(=O)COCCCCOc2ccc(-c3ccc(N4C(=S)N(c5ccc(C#N)c(C(F)(F)F)c5)C(=O)C4(C)C)cc3)cc2)C(C)(C)C)cc1` [Example 101, (2S,4R)-1-[(2S)-2-(2-{4-[4-(4-{3-[4-cyano-3-(trifluoromethyl)phenyl]-5,5-dimethyl-4-oxo-2-sulfanylideneimidazolidin-1-yl}phenyl)phenoxy]butoxy}acetamido)-3,3-dimethylbutanoyl]-4-hydroxy-N-[(1S)-1-[4-(4-methyl-1,3-oxazol-5-l)phenyl]ethyl]pyrrolidine-2-carboxamide], the Dmax was above 71% and the DC50 was below 0.05 µM.

For the compound `Cc1ncsc1-c1ccc(CNC(=O)[C@@H]2C[C@@H](O)CN2C(=O)[C@@H](NC(=O)COCCCCOc2ccc(-c3ccc(N4C(=S)N(c5ccc(C#N)c(C(F)(F)F)c5)C(=O)C4(C)C)cn3)cc2)C(C)(C)C)cc1` [Example 102, (2S,4R)-1-[(2S)-2-(2-{4-[4-(5-{3-[4-cyano-3-(trifluoromethyl)phenyl]-5,5-dimethyl-4-oxo-2-sulfanylideneimidazolidin-1-yl}pyridin-2-yl)phenoxy]butoxy}acetamido)-3,3-dimethylbutanoyl]-4-hydroxy-N-{[4-(4-methyl-1,3-thiazol-5-yl)phenyl]methyl}pyrrolidine-2-carboxamide], the Dmax is above 71% and the DC50 is below 0.05 µM.

As for `Cc1ncsc1-c1ccc(CNC(=O)[C@@H]2C[C@@H](O)CN2C(=O)[C@@H](NC(=O)COCCCCNc2ccc(-c3ccc(N4C(=S)N(c5ccc(C#N)c(C(F)(F)F)c5)C(=O)C4(C)C)cc3)cc2)C(C)(C)C)cc1` [Example 103, (2S,4R)-1-[(2S)-2-[2-(4-{[4-(4-{3-[4-cyano-3-(trifluoromethyl)phenyl]-5,5-dimethyl-4-oxo-2-sulfanylideneimidazolidin-1-yl}phenyl)phen-yl]amino}butoxy)acetamido]-3,3-dimethylbutanoyl]-4-hydroxy-N-{[4-(4-methyl-1,3-thiazol-5-yl)phenyl]methyl}pyrrolidine-2-carboxamide], the Dmax was above 71% and the DC50 is below 0.05 µM.

In the case of `Cn1cncc1-c1ccc(CNC(=O)[C@@H]2C[C@@H](O)CN2C(=O)[C@@H](NC(=O)COCCCCOc2ccc(-c3ccc(N4C(=S)N(c5ccc(C#N)c(C(F)(F)F)c5)C(=O)C4(C)C)cc3)cc2)C(C)(C)C)cc1` [Example 104, (2S,4R)-1-[(2S)-2-(2-{4-[4-(4-{3-[4-cyano-3-(trifluoromethyl)phenyl]-5,5-dimethyl-4-oxo-2-sulfanylideneimidazolidin-1-yl}phenyl)phenoxy]butoxy}acetamido)-3,3-dimethylbutanoyl]-4-hydroxy-N-{[4-(1-methyl-1H-imidazol-5-yl)phenyl]methyl}pyrrolidine-2-carboxamide], the Dmax is above 71% and the DC50 was below 0.05 µM.

Regarding `CC(C)(C)[C@H](NC(=O)COCCCCOc1ccc(-c2ccc(N3C(=S)N(c4ccc(C#N)c(C(F)(F)F)c4)C(=O)C3(C)C)cc2)cc1)C(=O)N1C[C@H](O)C[C@H]1C(=O)NCc1ccc(-c2ocnc2Cl)cc1` [Example 105, (2S,4R)-N-{[4-(4-chloro-1,3-oxazol-5-yl)phenyl]methyl}-1-[(2S)-2-(2-{4-[4-(4-{3-[4-cyano-3-(trifluoromethyl)phenyl]-5,5-dimethyl-4-oxo-2-sulfanylideneimidazolidin-1-yl}phenyl)phenoxy]butoxy}acetamido)-3,3-dimethylbutanoyl]-4-hydroxypyrrolidine-2-carboxamide], the Dmax was in the range of 51 to 70% and the DC50 is 0.051 to 0.5 µM.

As to `CC(C)(C)[C@H](NC(=O)COCCCCOc1ccc(-c2ccc(N3C(=S)N(c4ccc(C#N)c(Cl)c4)C(=O)C3(C)C)c(F)c2)cc1)C(=O)N1C[C@H](O)C[C@H]1C(=O)NCc1ccc(-c2cnco2)cc1` [Example 106, (2S,4R)-1-[(2S)-2-{2-[4-(4-{4-[3-(3-chloro-4-cyanophenyl)-5,5-dimethyl-4-oxo-2-sulfanylideneimidazolidin-1-yl]-3-fluorophenyl}phen-oxy)butoxy]acetamido}-3,3-dimethylbutanoyl]-4-hydroxy-N-{[4-(1,3-oxazol-5-yl)phenyl]methyl}pyrrolidine-2-carboxamide], the Dmax is above 71% and the DC50 was below 0.05 µM.

For `Cc1ncsc1-c1ccc(CNC(=O)[C@@H]2C[C@@H](O)CN2C(=O)[C@@H](NC(=O)COCCCCOc2ccc(-c3ccc(N4C(=S)N(c5ccc(C#N)c(Cl)c5)C(=O)C4(C)C)c(F)c3)cc2)C(C)(C)C)cc1` [Example 107, (2S,4R)-1-[(2S)-2-{2-[4-(4-{4-[3-(3-chloro-4-cyanophenyl)-5,5-dimethyl-4-oxo-2-sulfanylideneimidazolidin-1-yl]-3-fluorophenyl}phen-oxy)butoxy]acetamido}-3,3-dimethylbutanoyl]-4-hydroxy-N-{[4-(4-methyl-1,3-thiazol-5-yl)phenyl]methyl}pyrrolidine-2-carboxamide], the Dmax is above 71% and the DC50 is below 0.05 µM.

On to `CC(C)(C)[C@H](NC(=O)COCCCCOc1ccc(-c2ccc(N3C(=S)N(c4ccc(C#N)c(Cl)c4)C(=O)C3(C)C)c(F)c2)cc1)C(=O)N1C[C@H](O)C[C@H]1C(=O)NCc1ccc(-c2cncs2)cc1` [Example 108, (2S,4R)-1-[(2S)-2-{2-[4-(4-{4-[3-(3-chloro-4-cyanophenyl)-5,5-dimethyl-4-oxo-2-sulfanylideneimidazolidin-1-yl]-3-fluorophenyl}phen-oxy)butoxy]acetamido}-3,3-dimethylbutanoyl]-4-hydroxy-N-{[4-(1,3-thiazol-5-yl)phenyl]methyl}pyrrolidine-2-carboxamide], for which the Dmax was above 71% and the DC50 was below 0.05 µM.

Regarding `CC(C)(C)[C@H](NC(=O)COCCCCOc1ccc(-c2ccc(N3C(=S)N(c4ccc(C#N)c(Cl)c4)C(=O)C3(C)C)cc2F)cc1)C(=O)N1C[C@H](O)C[C@H]1C(=O)NCc1ccc(-c2cnco2)cc1` [Example 109, (2S,4R)-1-[(2S)-2-{2-[4-(4-{4-[3-(3-chloro-4-cyanophenyl)-5,5-dimethyl-4-oxo-2-sulfanylideneimidazolidin-1-yl]-2-fluorophenyl}phen-oxy)butoxy]acetamido}-3,3-dimethylbutanoyl]-4-hydroxy-N-{[4-(1,3-oxazol-5-yl)phenyl]methyl}pyrrolidine-2-carboxamide], the Dmax was above 71% and the DC50 is below 0.05 µM.

Take `Cc1ncoc1-c1ccc(CNC(=O)[C@@H]2C[C@@H](O)CN2C(=O)[C@@H](NC(=O)COCCCCOc2ccc(-c3ccc(N4C(=S)N(c5ccc(C#N)c(Cl)c5)C(=O)C4(C)C)cc3)cc2)C(C)(C)C)cc1` [Example 110, (2S,4R)-1-[(2S)-2-{2-[4-(4-{4-[3-(3-chloro-4-cyanophenyl)-5,5-dimethyl-4-oxo-2-sulfanylideneimidazolidin-1-yl]phenyl}phenoxy)butoxy]acetamido}-3,3-dimethylbutanoyl]-4-hydroxy-N-{[4-(4-methyl-1,3-oxazol-5-yl)phenyl]methyl}pyrrolidine-2-carboxamide]: the Dmax is above 71% and the DC50 was below 0.05 µM.

As for `CC(C)(C)[C@H](NC(=O)COCCCCOc1ccc(-c2ccc(N3C(=S)N(c4ccc(C#N)c(Cl)c4)C(=O)C3(C)C)cc2)cc1)C(=O)N1C[C@H](O)C[C@H]1C(=O)NCc1ccc(-c2cncs2)cc1` [Example 111, (2S,4R)-1-[(2S)-2-{2-[4-(4-{4-[3-(3-chloro-4-cyanophenyl)-5,5-dimethyl-4-oxo-2-sulfanylideneimidazolidin-1-yl]phenyl}phenoxy)butoxy]acetamido}-3,3-dimethylbutanoyl]-4-hydroxy-N-{[4-(1,3-thiazol-5-yl)phenyl]methyl}pyrrolidine-2-carboxamide], the Dmax was above 71% and the DC50 is below 0.05 µM.
